Results taken from patent publication US6352958B1, “Cycloimido-substituted benzofused heterocyclic herbicides” (FMC Corporation, priority 1997, dated 2002).

Tests used:
Type in all cases: in vivo
[1] = system: soybean (Glycine max var. Winchester); test: Preemergence herbicidal activity, soybean; conditions: Rate of Application 0.3 Kg/Ha, examined after 12-17 days
[2] = system: wheat (Triticum aestivum var. Lew); test: Preemergence herbicidal activity, wheat; conditions: Rate of Application 0.3 Kg/Ha, examined after 12-17 days
[3] = system: field corn (Zea mays var. Pioneer 3732); test: Preemergence herbicidal activity, corn; conditions: Rate of Application 0.3 Kg/Ha, examined after 12-17 days
[4] = system: velvetleaf (Abutilon theophrasti); test: Preemergence herbicidal activity, velvetleaf; conditions: Rate of Application 0.3 Kg/Ha, examined after 12-17 days
[5] = system: morningglory (Ipomea lacunosa or Ipomea hederacea); test: Preemergence herbicidal activity, morningglory; conditions: Rate of Application 0.3 Kg/Ha, examined after 12-17 days
[6] = system: common cocklebur (Xanthium strumarium L.); test: Preemergence herbicidal activity, cocklebur; conditions: Rate of Application 0.3 Kg/Ha, examined after 12-17 days
[7] = system: blackgrass (Aloepecurus myosuroides); test: Preemergence herbicidal activity, blackgrass; conditions: Rate of Application 0.3 Kg/Ha, examined after 12-17 days
[8] = system: green foxtail (Setaria viridis); test: Preemergence herbicidal activity, green foxtail; conditions: Rate of Application 0.3 Kg/Ha, examined after 12-17 days
[9] = system: Johnsongrass (Sorghum halepense); test: Preemergence herbicidal activity, johnsongrass; conditions: Rate of Application 0.3 Kg/Ha, examined after 12-17 days
[10] = system: soybean (Glycine max var. Winchester); test: Postemergence herbicidal activity, soybean; conditions: rate of application 0.3 Kg/Ha, rated after 12-17 days
[11] = system: wheat (Triticum aestivum var. Lew); test: Postemergence herbicidal activity, wheat; conditions: rate of application 0.3 Kg/Ha, rated after 12-17 days
[12] = system: field corn (Zea mays var. Pioneer 3732); test: Postemergence herbicidal activity, corn; conditions: rate of application 0.3 Kg/Ha, rated after 12-17 days
[13] = system: velvetleaf (Abutilon theophrasti); test: Postemergence herbicidal activity, velvetleaf; conditions: rate of application 0.3 Kg/Ha, rated after 12-17 days
[14] = system: morningglory (Ipomea lacunosa or Ipomea hederacea); test: Postemergence herbicidal activity, morningglory; conditions: rate of application 0.3 Kg/Ha, rated after 12-17 days
[15] = system: common chickweed (Stellaria media); test: Postemergence herbicidal activity, chickweed; conditions: rate of application 0.3 Kg/Ha, rated after 12-17 days
[16] = system: common cocklebur (Xanthium strumarium L.); test: Postemergence herbicidal activity, cocklebur; conditions: rate of application 0.3 Kg/Ha, rated after 12-17 days
[17] = system: blackgrass (Aloepecurus myosuroides); test: Postemergence herbicidal activity, blackgrass; conditions: rate of application 0.3 Kg/Ha, rated after 12-17 days
[18] = system: green foxtail (Setaria viridis); test: Postemergence herbicidal activity, green foxtail; conditions: rate of application 0.3 Kg/Ha, rated after 12-17 days
[19] = system: Johnsongrass (Sorghum halepense); test: Postemergence herbicidal activity, johnsongrass; conditions: rate of application 0.3 Kg/Ha, rated after 12-17 days
[20] = system: common chickweed (Stellaria media); test: Preemergence herbicidal activity, chickweed; conditions: Rate of Application 0.3 Kg/Ha, examined after 12-17 days

SMILES | PREEMERGENCE HERBICIDAL ACTIVITY (% CONTROL) SOY [1] [%] | PREEMERGENCE HERBICIDAL ACTIVITY (% CONTROL) WHT [2] [%] | PREEMERGENCE HERBICIDAL ACTIVITY (% CONTROL) CRN [3] [%] | PREEMERGENCE HERBICIDAL ACTIVITY (% CONTROL) ABUTH [4] [%] | PREEMERGENCE HERBICIDAL ACTIVITY (% CONTROL) IPOSS [5] [%] | PREEMERGENCE HERBICIDAL ACTIVITY (% CONTROL) XANPE [6] [%] | PREEMERGENCE HERBICIDAL ACTIVITY (% CONTROL) ALOMY [7] [%] | PREEMERGENCE HERBICIDAL ACTIVITY (% CONTROL) SETVI [8] [%] | PREEMERGENCE HERBICIDAL ACTIVITY (% CONTROL) SORHA [9] [%] | Postemergence herbicidal activity (% control) SOY [10] [%] | Postemergence herbicidal activity (% control) WHT [11] [%] | Postemergence herbicidal activity (% control) CRN [12] [%] | Postemergence herbicidal activity (% control) ABUTH [13] [%] | Postemergence herbicidal activity (% control) IPOSS [14] [%] | Postemergence herbicidal activity (% control) STEME [15] [%] | Postemergence herbicidal activity (% control) XANPE [16] [%] | Postemergence herbicidal activity (% control) ALOMY [17] [%] | Postemergence herbicidal activity (% control) SETVI [18] [%] | Postemergence herbicidal activity (% control) SORHA [19] [%] | PREEMERGENCE HERBICIDAL ACTIVITY (% CONTROL) STEME [20] [%] | other results
CC(OC(=O)NCc1ccccc1)c1cc2c(Cl)cc(F)c(-n3c(=O)cc(C(F)(F)F)n(C)c3=O)c2o1 (centres unmarked) [Compound 250] | 80 | 40 | 50 | 100 | 100 | 100 | 60 | 100 | 70 | 95 | 50 | 80 | 100 | 100 | 80 | 100 | 40 | 100 | 100 | – | –
Cn1c(C(F)(F)F)cc(=O)n(-c2c(F)cc(Cl)c3[nH]c(C(F)(F)F)nc23)c1=O [Compound 365, 3-(4-CHLORO-6-FLUORO-2-TRIFLUOROMETHYLBENZIMIDAZOL-7-YL)-1-METHYL-6-TRIFLUOROMETHYL-2,4(1H,3H)-PYRIMIDINEDIONE] | – | – | – | – | – | – | – | – | – | – | – | – | – | – | – | – | – | – | – | – | inhibition at 300 g/ha ([2]; Triticum aestivum, pre-emergence, read-out: PREEMERGENCE HERBICIDAL ACTIVITY (% CONTROL) WHT): 30%; inhibition at 300 g/ha ([3]; Zea mays, pre-emergence, read-out: PREEMERGENCE HERBICIDAL ACTIVITY (% CONTROL) CRN): 30%; inhibition at 300 g/ha ([4]; Abutilon theophrasti, pre-emergence, read-out: PREEMERGENCE HERBICIDAL ACTIVITY (% CONTROL) ABUTH): 100%; inhibition at 300 g/ha ([5]; Ipomoea, pre-emergence, read-out: PREEMERGENCE HERBICIDAL ACTIVITY (% CONTROL) IPOSS): 100%; inhibition at 300 g/ha ([20]; Stellaria media, pre-emergence, read-out: PREEMERGENCE HERBICIDAL ACTIVITY (% CONTROL) STEME): 100%; inhibition at 300 g/ha ([6]; Xanthium strumarium, pre-emergence, read-out: PREEMERGENCE HERBICIDAL ACTIVITY (% CONTROL) XANPE): 100%; inhibition at 300 g/ha ([7]; Alopecurus myosuroides, pre-emergence, read-out: PREEMERGENCE HERBICIDAL ACTIVITY (% CONTROL) ALOMY): 60%; inhibition at 300 g/ha ([8]; Setaria viridis, pre-emergence, read-out: PREEMERGENCE HERBICIDAL ACTIVITY (% CONTROL) SETVI): 75%; inhibition at 300 g/ha ([9]; Sorghum halepense, pre-emergence, read-out: PREEMERGENCE HERBICIDAL ACTIVITY (% CONTROL) SORHA): 60%; inhibition at 300 g/ha ([10]; Glycine max, post-emergence, read-out: Postemergence herbicidal activity (% control) SOY): 100%; inhibition at 300 g/ha ([11]; Triticum aestivum, post-emergence, read-out: Postemergence herbicidal activity (% control) WHT): 40%; inhibition at 300 g/ha ([12]; Zea mays, post-emergence, read-out: Postemergence herbicidal activity (% control) CRN): 70%; inhibition at 300 g/ha ([13]; Abutilon theophrasti, post-emergence, read-out: Postemergence herbicidal activity (% control) ABUTH): 100%; inhibition at 300 g/ha ([14]; Ipomoea, post-emergence, read-out: Postemergence herbicidal activity (% control) IPOSS): 100%; inhibition at 300 g/ha ([15]; Stellaria media, post-emergence, read-out: Postemergence herbicidal activity (% control) STEME): 100%; inhibition at 300 g/ha ([17]; Alopecurus myosuroides, post-emergence, read-out: Postemergence herbicidal activity (% control) ALOMY): 70%; inhibition at 300 g/ha ([18]; Setaria viridis, post-emergence, read-out: Postemergence herbicidal activity (% control) SETVI): 80%; inhibition at 300 g/ha ([19]; Sorghum halepense, post-emergence, read-out: Postemergence herbicidal activity (% control) SORHA): 30%
Cn1c(C(F)(F)F)cc(=O)n(-c2c(F)cc(Cl)c3cc(C(C)(C)C)oc23)c1=O [Compound 227] | 100 | 80 | 90 | 100 | 100 | – | 95 | 100 | 100 | 95 | 60 | 90 | 100 | 100 | 100 | 100 | 100 | 100 | 100 | 100 | –
Cn1c(C(F)(F)F)cc(=O)n(-c2c(F)cc(Cl)c3[nH]cnc23)c1=O [Compound 362] | 100 | 100 | 100 | 100 | 100 | 100 | 100 | 100 | 100 | 100 | 100 | 100 | 100 | 100 | 100 | – | 100 | 100 | 100 | 100 | –
C=C(C)c1cc2c(Cl)cc(F)c(-n3c(=O)cc(C(F)(F)F)n(C)c3=O)c2o1 [Compound 231] | 100 | 80 | 100 | 100 | 100 | 100 | 90 | 100 | 100 | 100 | 70 | 100 | 100 | 100 | 100 | – | 100 | 100 | 100 | 100 | –
CC(C)Oc1nc2c(-n3c(=O)cc(C(F)(F)F)n(C)c3=O)c(F)cc(Br)c2o1 [Compound 107] | 80 | 60 | 90 | 100 | 100 | 40 | 75 | 100 | 100 | 95 | 40 | 100 | 100 | 100 | 100 | – | 90 | 100 | 100 | 100 | –
